ChEMBL document CHEMBL4385607, “Structure- and Ligand-Based Discovery of Chromane Arylsulfonamide Nav1.7 Inhibitors for the Treatment of Chronic Pain” (J Med Chem, 2019)
Blank lines part the entries; values can stand above or below the compound they belong to.

What was measured:
[1] = Lipophilicity, log D of compound at pH 7.4; format: physicochemical; conditions: buffer
[2] = Drug excretion in Sprague-Dawley rat bile at 1 mg/kg, iv or 5 mg/kg, po measured up to 8 hrs by LC-MS/MS analysis; format: ADME, organism-based; conditions: in vivo
[3] = Volume of distribution at steady state in FVB mouse at 1 mg/kg, iv measured upto 6 hrs by LC-MS/MS analysis; format: ADME, organism-based; conditions: in vivo, read-out: Vdss
[4] = Volume of distribution at steady state in Sprague-Dawley rat at 1 mg/kg, iv measured upto 8 hrs by LC-MS/MS analysis; format: ADME, organism-based; conditions: in vivo, read-out: Vdss
[5] = Dissociation constant, acidic pKa of compound by spectrophotometric method; format: physicochemical
[6] = Ratio of drug uptake in Sprague-Dawley rat liver to plasma at 5 mg/kg, po measured up to 8 hrs by LC-MS/MS analysis; format: ADME, organism-based
[7] = Clearance in human hepatocytes at 1 uM measured up to 3 hrs by LC-MS/MS analysis; format: ADME, cell-based, Hepatocyte
[8] = Clearance in Sprague-Dawley rat hepatocytes at 1 uM measured up to 3 hrs by LC-MS/MS analysis; format: ADME, cell-based, Hepatocyte
[9] = Drug metabolism in human hepatocytes assessed as oxidation of arene ring at 1 uM measured up to 3 hrs by LC-MS/MS analysis; format: ADME, cell-based, Hepatocyte
[10] = Plasma clearance in Sprague-Dawley rat at 1 mg/kg, iv measured up to 8 hrs by LC-MS/MS analysis; format: ADME, organism-based
[11] = Blood clearance in FVB mouse at 1 mg/kg, iv measured upto 6 hrs by LC-MS/MS analysis; format: ADME, organism-based; conditions: whole blood
[12] = Clearance in Beagle dog at 0.5 mg/kg, iv administered as single dose measured upto 24 hrs by LC-MS/MS analysis relative to hepatic blood flow; format: ADME, organism-based, Canis lupus familiaris; conditions: in vivo
[13] = Oral bioavailability in Beagle dog at 0.5 mg/kg administered as single dose measured upto 24 hrs by LC-MS/MS analysis; format: ADME, organism-based, Canis lupus familiaris; conditions: in vivo
[14] = Half life in Sprague-Dawley rat at 1 mg/kg, iv measured upto 8 hrs by LC-MS/MS analysis; format: ADME, organism-based; conditions: in vivo
[15] = Plasma clearance in cynomolgus monkey at 0.5 mg/kg, iv administered as single dose measured upto 24 hrs by LC-MS/MS analysis; format: ADME, organism-based, Macaca fascicularis
[16] = Volume of distribution at steady state in Beagle dog at 0.5 mg/kg, iv administered as single dose measured upto 24 hrs by LC-MS/MS analysis; format: ADME, organism-based, Canis lupus familiaris; conditions: in vivo, read-out: Vdss
[17] = Half life in cynomolgus monkey at 0.5 mg/kg, iv administered as single dose measured upto 24 hrs by LC-MS/MS analysis; format: ADME, organism-based, Macaca fascicularis; conditions: in vivo
[18] = Oral bioavailability in cynomolgus monkey at 0.5 mg/kg administered as single dose measured upto 24 hrs by LC-MS/MS analysis; format: ADME, organism-based, Macaca fascicularis; conditions: in vivo
[19] = Clearance in Sprague-Dawley rat at 1 mg/kg, iv measured upto 8 hrs by LC-MS/MS analysis relative to hepatic blood flow; format: ADME, organism-based; conditions: in vivo
[20] = Plasma clearance in Beagle dog at 0.5 mg/kg, iv administered as single dose measured upto 24 hrs by LC-MS/MS analysis; format: ADME, organism-based, Canis lupus familiaris
[21] = Oral bioavailability in Sprague-Dawley rat at 5 mg/kg measured upto 8 hrs by LC-MS/MS analysis; format: ADME, organism-based; conditions: in vivo
[22] = Half life in Beagle dog at 0.5 mg/kg, iv administered as single dose measured upto 24 hrs by LC-MS/MS analysis; format: ADME, organism-based, Canis lupus familiaris; conditions: in vivo
[23] = Clearance in cynomolgus monkey at 0.5 mg/kg, iv administered as single dose measured upto 24 hrs by LC-MS/MS analysis relative to hepatic blood flow; format: ADME, organism-based, Macaca fascicularis; conditions: in vivo
[24] = Volume of distribution at steady state in cynomolgus monkey at 0.5 mg/kg, iv administered as single dose measured upto 24 hrs by LC-MS/MS analysis; format: ADME, organism-based, Macaca fascicularis; conditions: in vivo, read-out: Vdss
[25] = Drug level in plasma of FVB transgenic mouse model of inherited erythromelalgia xenografted with human HEK293 cells harboring I848T mutation at 15 mg/kg, po measured after 70 mins by LC-MS/MS analysis; format: ADME, organism-based
[26] = Dissociation constant, basic pKa of compound; format: physicochemical
[27] = Drug level in plasma of FVB transgenic mouse model of inherited erythromelalgia xenografted with human HEK293 cells harboring I848T mutation at 50 mg/kg, po measured after 70 mins by LC-MS/MS analysis; format: ADME, organism-based

Compound: O=S(=O)(Nc1ccncn1)c1cc2c(cc1F)[C@@H](N1CC[C@H](C(F)(F)F)C[C@@H]1c1ccccn1)CCO2
- clearance [12]: 8 to 44%
- logD [1]: 1.4
- bioavailability [13]: 32%
- Vd [4]: 1.2 L/kg
- half-life [14]: 1.7 h
- clearance [15]: 19 mL/min/kg
- Vd [16]: 0.74 L/kg
- half-life [17]: 2.1 h
- CLhep predicted at 1 µM [7]: < 6.2 mL/min/kg
- CLhep predicted at 1 µM [8]: 17 mL/min/kg
- bioavailability [18]: 18%
- clearance [19]: 8 to 44%
- clearance [20]: 2.4 mL/min/kg
- bioavailability [21]: 73%
- half-life [22]: 4.3 h
- clearance [23]: 8 to 44%
- clearance [10]: 14 to 15 mL/min/kg
- Vd [24]: 0.66 L/kg

Compound: O=S(=O)(Nc1ccncn1)c1cc2c(cc1F)[C@@H](N1CC[C@H](C(F)(F)F)C[C@@H]1c1cnco1)CCO2
- logD [1]: 0.9
- CLhep predicted at 1 µM [7]: 12 mL/min/kg
- CLhep predicted at 1 µM [8]: 12 mL/min/kg
- clearance [10]: 62 mL/min/kg

Compound: O=S(=O)(Nc1ccncn1)c1cc2c(cc1F)[C@@H](N1CC[C@H](C(F)(F)F)C[C@@H]1c1cnccn1)CCO2
- logD [1]: 0.5
- CLhep predicted at 1 µM [7]: 9 mL/min/kg
- CLhep predicted at 1 µM [8]: 25 mL/min/kg
- clearance [10]: 42 mL/min/kg

Compound: O=S(=O)(Nc1ncns1)c1cc(F)c(CN2CCCC[C@@H]2c2ccccc2)cc1F
- logD [1]: 1.9

Compound: O=S(=O)(Nc1ncns1)c1cc(F)c(CN2CC[C@@H](C(F)(F)F)C[C@H]2c2ccccc2)cc1F
- logD [1]: 2.7

Compound: O=S(=O)(Nc1ncns1)c1cc(F)c(CN2CC[C@H](C(F)(F)F)C[C@@H]2c2ccccc2)cc1F
- concentration at 70 min [25]: 33 µM
- logD [1]: 2.7
- pKa [26]: 5.5
- concentration at 70 min [27]: 58 µM

Compound: Cn1ccc([C@H]2C[C@@H](C(F)(F)F)CCN2[C@H]2CCOc3cc(S(=O)(=O)Nc4ccncn4)c(F)cc32)n1
- logD [1]: 1.3
- CLhep predicted at 1 µM [7]: 8.2 mL/min/kg
- CLhep predicted at 1 µM [8]: 41 mL/min/kg
- clearance [10]: 46 mL/min/kg

Compound: Cn1nccc1[C@H]1C[C@@H](C(F)(F)F)CCN1[C@H]1CCOc2cc(S(=O)(=O)Nc3ccncn3)c(F)cc21
- logD [1]: 0.9
- CLhep predicted at 1 µM [7]: 14 mL/min/kg
- CLhep predicted at 1 µM [8]: 14 mL/min/kg
- clearance [10]: 42 mL/min/kg

Compound: O=S(=O)(Nc1ccncn1)c1cc2c(cc1F)[C@@H](N1CC[C@H](C(F)(F)F)C[C@@H]1c1ccncn1)CCO2
- logD [1]: 0.6
- CLhep predicted at 1 µM [7]: 7.8 mL/min/kg
- CLhep predicted at 1 µM [8]: 16 mL/min/kg

Compound: O=S(=O)(Nc1ncns1)c1cc(F)c(CN2CCCC[C@H]2c2ccccc2)cc1F
- logD [1]: 1.9

Now from value to compound:

- logD [1]: 3.2
- Drug excretion [2]: Active
- Vd [3]: 4.8 L/kg
- Vd [4]: 23 L/kg
- pKa [5]: 3.26
- Kp at 8 h [6]: 202
- CLhep predicted at 1 µM [7]: 11 mL/min/kg
- CLhep predicted at 1 µM [8]: 17 mL/min/kg
- Drug metabolism [9]: Metabolite_Notdetected
- clearance [10]: 62 mL/min/kg
- clearance [11]: 46 mL/min/kg
Compound: O=S(=O)(Nc1ncns1)c1ccc2c(c1)OCC[C@@H]2N1CC[C@H](C(F)(F)F)C[C@@H]1c1ccc(F)cc1

- logD [1]: 1.1
- CLhep predicted at 1 µM [7]: 12 mL/min/kg
- CLhep predicted at 1 µM [8]: 18 mL/min/kg
- clearance [10]: 161 mL/min/kg
Compound: O=S(=O)(Nc1ccncn1)c1cc2c(cc1F)[C@@H](N1CC[C@H](C(F)(F)F)C[C@@H]1c1cn[nH]c1)CCO2

- logD [1]: 1.2
- CLhep predicted at 1 µM [7]: 13 mL/min/kg
- CLhep predicted at 1 µM [8]: 13 mL/min/kg
- clearance [10]: 82 mL/min/kg
Compound: O=S(=O)(Nc1ccncn1)c1cc2c(cc1F)[C@@H](N1CC[C@H](C(F)(F)F)C[C@@H]1c1ccncc1)CCO2

- logD [1]: 1.3
- CLhep predicted at 1 µM [7]: 9.1 mL/min/kg
- CLhep predicted at 1 µM [8]: 15 mL/min/kg
- clearance [10]: 93 mL/min/kg
Compound: O=S(=O)(Nc1ccncn1)c1cc2c(cc1F)[C@@H](N1CC[C@H](C(F)(F)F)C[C@@H]1c1cc[nH]n1)CCO2

- logD [1]: 5
- pKa [5]: 8.22
- CLhep predicted at 1 µM [7]: < 6.2 mL/min/kg
- CLhep predicted at 1 µM [8]: < 10 mL/min/kg
- clearance [10]: 4.9 mL/min/kg
Compound: O=S(=O)(Nc1ccc(F)cn1)c1cc2c(cc1F)[C@@H](N1CC[C@H](C(F)(F)F)C[C@@H]1c1ccc(F)cc1)CCO2

- logD [1]: 2.8
- pKa [5]: 4.49
- CLhep predicted at 1 µM [7]: < 6.2 mL/min/kg
- CLhep predicted at 1 µM [8]: 13 mL/min/kg
- clearance [10]: 2.1 mL/min/kg
Compound: O=S(=O)(Nc1ccon1)c1cc2c(cc1F)[C@@H](N1CC[C@H](C(F)(F)F)C[C@@H]1c1ccc(F)cc1)CCO2

- logD [1]: 3.2
- Vd [3]: 0.9 L/kg
- Vd [4]: 0.7 L/kg
- pKa [5]: 5.81
- Kp at 8 h [6]: 4
- CLhep predicted at 1 µM [7]: 7.7 mL/min/kg
- CLhep predicted at 1 µM [8]: 14 mL/min/kg
- clearance [10]: 0.78 to 0.8 mL/min/kg
- clearance [11]: 8.3 mL/min/kg
Compound: O=S(=O)(Nc1ccncn1)c1cc2c(cc1F)[C@@H](N1CC[C@H](C(F)(F)F)C[C@@H]1c1ccc(F)cc1)CCO2

- logD [1]: 4.3
- pKa [5]: 6.59
- CLhep predicted at 1 µM [7]: < 6.2 mL/min/kg
- CLhep predicted at 1 µM [8]: < 10 mL/min/kg
- clearance [10]: 0.71 mL/min/kg
Compound: O=S(=O)(Nc1cccnn1)c1cc2c(cc1F)[C@@H](N1CC[C@H](C(F)(F)F)C[C@@H]1c1ccc(F)cc1)CCO2

- logD [1]: 0.2
- CLhep predicted at 1 µM [7]: < 6.2 mL/min/kg
- CLhep predicted at 1 µM [8]: < 10 mL/min/kg
Compound: O=S(=O)(Nc1ccncn1)c1cc2c(cc1F)[C@@H](N1CC[C@H](C(F)(F)F)C[C@@H]1c1ccnnc1)CCO2

- logD [1]: 1.3
- CLhep predicted at 1 µM [7]: 15 mL/min/kg
- CLhep predicted at 1 µM [8]: 26 mL/min/kg
- clearance [10]: 101 mL/min/kg
Compound: O=S(=O)(Nc1ccncn1)c1cc2c(cc1F)[C@@H](N1CC[C@H](C(F)(F)F)C[C@@H]1c1cccnc1)CCO2

- logD [1]: 3.5
- CLhep predicted at 1 µM [7]: 11 mL/min/kg
- CLhep predicted at 1 µM [8]: 32 mL/min/kg
Compound: O=S(=O)(Nc1ncns1)c1ccc2c(c1)OCC[C@@H]2N1CC[C@H](C(F)(F)F)C[C@@H]1c1ccccc1
